SMILES strings stand for the structures. Values after ≈ are worked out from the molar mass of the structure shown.

Format in all cases: functional
Test [1] concerns Aspergillus fumigatus. Nature of the test: Antifungal activity against Aspergillus fumigatus assessed as reduction in fungal cell growth incubated for 24 and 48 hrs by broth microdilution method. In general terms: In broth dilution the organism is exposed to a series of concentrations in liquid medium.
Test [2] has as its system Candida albicans. The experiment in a line: Antifungal activity against Candida albicans MTCC 227 assessed as reduction in fungal cell growth incubated for 24 and 48 hrs by broth microdilution method.
Test [3] has as its system Candida albicans. The experiment in a line: Potency index, ratio for MIC of griseofulvin to MIC of compound for antifungal activity against Candida albicans MTCC 227 assessed as reduction in fungal cell growth incubated for 24 and 48 hrs by broth microdilution method.
The test system of test [4] is Saccharomyces cerevisiae. The experiment in a line: Antifungal activity against Saccharomyces cerevisiae.
The test system of test [5] is Aspergillus niger. The experiment in a line: Antifungal activity against Aspergillus niger.
Test [6] deals with Candida albicans. The experiment in a line: Antifungal activity against Candida albicans.
The subject of test [7] is Aspergillus fumigatus. Nature of the test: Antifungal activity against Aspergillus fumigatus.
In test [8] the test system is Candida albicans. The experiment in a line: Antifungal activity against Candida albicans TA.
The test system of test [9] is Candida albicans. The experiment in a line: In vivo antifungal activity against Candida albicans TA infected in CDF-1 mouse dosed orally assessed as survival of mouse. Particulars: po.
In test [10] the test system is Candida albicans. Nature of the test: Potency index, ratio for MIC of fluconazole to MIC of compound for antifungal activity against Candida albicans TA.
For test [11], the system named is Pichia kudriavzevii. Nature of the test: Antifungal activity against Candida krusei assessed as reduction in fungal cell growth incubated for 24 hrs by broth microdilution method.
Test [12] relates to Candida tropicalis. Nature of the test: Antifungal activity against Candida tropicalis assessed as reduction in fungal cell growth incubated for 48 hrs by broth microdilution method.
In test [13] the test system is Candida albicans. The experiment in a line: Antifungal activity against Candida albicans assessed as reduction in fungal cell growth incubated for 24 hrs by broth microdilution method.
In test [14] the test system is Candida tropicalis. The experiment in a line: Antifungal activity against Candida tropicalis assessed as reduction in fungal cell growth incubated for 24 hrs by broth microdilution method.
Test [15] concerns Candida albicans. The experiment in a line: Antifungal activity against Candida albicans V-01-191A-261 assessed as reduction in fungal cell growth incubated for 48 hrs by broth microdilution method. As to conditions: V-01-191A-261, 48 h.
Test [16] relates to Aspergillus flavus. Nature of the test: Antifungal activity against Aspergillus flavus assessed as reduction in fungal cell growth incubated for 24 and 72 hrs by cup plate method.
For test [17], the system named is Aspergillus fumigatus. The experiment in a line: Antifungal activity against Aspergillus fumigatus assessed as inhibition zone at 20 ug/ml by disk diffusion method. As to conditions: read-out: IZ. On the technique in general: A growth-free zone around the sample is the usual read-out of agar diffusion tests.
Test [18] has as its system Aspergillus niger. Nature of the test: Antifungal activity against Aspergillus niger assessed as inhibition zone at 20 ug/ml by disk diffusion method. Particulars: read-out: IZ.
The test system of test [19] is Nakaseomyces glabratus. Nature of the test: Antifungal activity against Candida glabrata assessed as reduction in fungal cell growth incubated for 48 hrs by broth microdilution method.
The subject of test [20] is Candida albicans. The experiment in a line: Antifungal activity against Candida albicans assessed as reduction in fungal cell growth incubated for 48 hrs by broth microdilution susceptibility method.
Test [21] concerns Candida albicans. Nature of the test: Antifungal activity against Candida albicans assessed as reduction in fungal cell growth incubated for 24 and 72 hrs by cup plate method.
The test system of test [22] is Aspergillus niger. Nature of the test: Antifungal activity against Aspergillus niger assessed as reduction in fungal cell growth incubated for 48 hrs by broth microdilution method.
Another test relates to Candida parapsilosis. Nature of the test: Antifungal activity against Candida parapsilosis ATCC 22019 assessed as reduction in fungal cell growth incubated for 48 hrs by broth microdilution method. As to conditions: Lodderomyces parapsilosis, ATCC 22019, 48 h.
Test [23] concerns Aspergillus flavus. Nature of the test: Antifungal activity against Aspergillus flavus assessed as inhibition zone at 20 ug/ml by disk diffusion method. As to conditions: read-out: IZ.
In a further test the test system is Cryptococcus neoformans. Nature of the test: Antifungal activity against Cryptococcus neoformans LA314 assessed as reduction in fungal cell growth incubated for 48 hrs by broth microdilution method. Particulars: LA314, 48 h.
In test [24] the test system is Candida albicans. Nature of the test: Antifungal activity against Candida albicans assessed as inhibition zone at 100 ug/ml. Particulars: read-out: IZ.
The subject of test [25] is Candida albicans. Nature of the test: Antifungal activity against Candida albicans assessed as inhibition zone at 125 ug/ml by disk diffusion method. As to conditions: read-out: IZ.
Test [26] has as its system Pichia kudriavzevii. The experiment in a line: Antifungal activity against Candida krusei assessed as reduction in fungal cell growth incubated for 48 hrs by broth microdilution method.
Test [27] has as its system Aspergillus niger. The experiment in a line: Antifungal activity against Aspergillus niger assessed as reduction in fungal cell growth incubated for 72 hrs by broth microdilution method.
In test [28] the test system is Candida albicans. The experiment in a line: Antifungal activity against Candida albicans assessed as inhibition zone at 20 ug/ml by disk diffusion method. As to conditions: read-out: IZ.
Test [29] relates to Aspergillus niger. Nature of the test: Antifungal activity against Aspergillus niger assessed as inhibition zone at 100 ug/ml. As to conditions: read-out: IZ.
Test [30] concerns Aspergillus niger. The experiment in a line: Antifungal activity against Aspergillus niger assessed as reduction in fungal cell growth incubated for 48 hrs by broth microdilution susceptibility method.
Test [31] deals with Aspergillus fumigatus. The experiment in a line: Antifungal activity against Aspergillus fumigatus assessed as reduction in fungal cell growth incubated for 48 hrs by broth microdilution method.
The test system of test [32] is Nakaseomyces glabratus. Nature of the test: Antifungal activity against Candida glabrata assessed as reduction in fungal cell growth incubated for 24 hrs by broth microdilution method.
Test [33] relates to Aspergillus niger. Nature of the test: Potency index, ratio for MIC of fluconazole to MIC of compound for antifungal activity against Aspergillus niger.
Test [34] has as its system Saccharomyces cerevisiae. The experiment in a line: Potency index, ratio for MIC of fluconazole to MIC of compound for antifungal activity against Saccharomyces cerevisiae.
Test [35] relates to Aspergillus fumigatus. Nature of the test: Potency index, ratio for MIC of fluconazole to MIC of compound for antifungal activity against Aspergillus fumigatus.
For another test, the system named is Fusarium graminearum. Nature of the test: Antifungal activity against Gibberella zeae assessed as inhibition of growth at 50 ug/ml. Particulars: read-out: GI.
The next test has as its system Sclerotinia sclerotiorum. The experiment in a line: Antifungal activity against Sclerotinia sclerotiorum assessed as inhibition of growth at 50 ug/ml. Particulars: read-out: GI.
The subject of another test is Phytophthora infestans. Nature of the test: Antifungal activity against Phytophthora infestans assessed as inhibition of growth at 50 ug/ml. Particulars: read-out: GI.
The next test has as its system Botrytis cinerea. The experiment in a line: Antifungal activity against Botrytis cinerea assessed as inhibition of growth at 50 ug/ml. As to conditions: read-out: GI.
The nature of test [36]: Antifungal activity against Pellicularia sasakii assessed as inhibition of growth at 50 ug/ml. Particulars: read-out: GI.
For another test, the system named is Alternaria solani. Nature of the test: Antifungal activity against Alternaria solani assessed as inhibition of growth at 50 ug/ml. As to conditions: read-out: GI.
The next test relates to Mycosphaerella arachidis. The experiment in a line: Antifungal activity against Cercospora arachidicola assessed as inhibition of growth at 50 ug/ml. Particulars: read-out: GI.
The next test concerns Ceratobasidium cereale. Nature of the test: Antifungal activity against Rhizoctonia cerealis assessed as inhibition of growth at 50 ug/ml. Particulars: read-out: GI.
Test [37] has as its system Botryosphaeria berengeriana. Nature of the test: Antifungal activity against Physalospora pyricola assessed as inhibition of growth at 50 ug/ml. Particulars: read-out: GI.

Turning to `Cc1ccc2[nH]c(-c3cc4cc(Cl)ccc4n4nnnc34)nc2c1`, the minimal inhibitory concentration (MIC) is 125 to 1000 µg/mL (≈ 373 to 2990 µM) with Aspergillus fumigatus [1] and 125 µg/mL (≈ 373 µM) in the test with Candida albicans [2]. In addition, in the test on Candida albicans [3], the Ratio was found to be 4.

As for `O=C(/C=C/c1ccc([N+](=O)[O-])cc1)c1ccc(-n2nnnc2-c2nc(-c3nnnn3-c3ccc(C(=O)/C=C/c4ccc([N+](=O)[O-])cc4)cc3)nc(-c3nnnn3-c3ccc(C(=O)/C=C/c4ccc([N+](=O)[O-])cc4)cc3)n2)cc1`, the MIC with Saccharomyces cerevisiae [4], in the test with Aspergillus niger [5], in the test with Candida albicans [6] and in the test with Aspergillus fumigatus [7] was less than 2.5 µg/mL in each case.

With `C[C@@H](n1cnnn1)[C@](O)(Cn1cncn1)c1ccc(F)cc1F`, in the test on Candida albicans [8], the lowest concentration to inhibit growth (MIC) was 12.5 µg/mL (≈ 38.9 µM). For the same molecule, the ED50 in the test with Candida albicans [9] was determined as 0.18 mg/kg. For the same molecule, the Ratio in the test on Candida albicans [10] came out at 8.

As for `OC(Cn1cncn1)(Cn1cncn1)c1ccc(F)cc1F` [FLUCONAZOLE], the MIC in the test with Pichia kudriavzevii [11] was 1 to 4 µg/mL (≈ 3.27 to 13.1 µM); in the test on Candida tropicalis [12], 2 to 8 µg/mL (≈ 6.53 to 26.1 µM); against Candida albicans [8], 100 µg/mL (≈ 327 µM); with Candida albicans [13] it was 1 to 4 µg/mL (≈ 3.27 to 13.1 µM); in the test on Candida tropicalis [14], 1 to 4 µg/mL (≈ 3.27 to 13.1 µM); in the test with Candida albicans [15] it was 2 to 8 µg/mL (≈ 6.53 to 26.1 µM). Further, the MIC in the test with Aspergillus flavus [16] is 25 µg/mL (≈ 81.6 µM); in the test with Nakaseomyces glabratus [19] it was 2 to 8 µg/mL (≈ 6.53 to 26.1 µM); in the test with Candida albicans [20] it was 6.25 µg/mL (≈ 20.4 µM); in the test on Candida albicans [21] it was 25 µg/mL (≈ 81.6 µM); with Aspergillus niger [22], 0.625 to 6.25 µg/mL (≈ 2.04 to 20.4 µM); with Candida parapsilosis, 2 to 8 µg/mL (≈ 6.53 to 26.1 µM). In addition, the MIC in the test on Cryptococcus neoformans is 2 to 8 µg/mL (≈ 6.53 to 26.1 µM); with Pichia kudriavzevii [26], 2 to 8 µg/mL (≈ 6.53 to 26.1 µM); in the test on Aspergillus niger [27] it was 2 to 8 µg/mL (≈ 6.53 to 26.1 µM); in the test on Aspergillus niger [30] it was 6.25 µg/mL (≈ 20.4 µM); in the test on Aspergillus fumigatus [31] it was 2.5 µg/mL (≈ 8.16 µM); in the test on Nakaseomyces glabratus [32], 1 to 4 µg/mL (≈ 3.27 to 13.1 µM). Further, the ED50 with Candida albicans [9] was 0.29 to 0.35 mg/kg. Also, the zone of inhibition at 20 µg/mL in the test on Aspergillus fumigatus [17], in the test on Aspergillus niger [18], in the test with Aspergillus flavus [23] and with Candida albicans [28] was 19 to 22 mm in each case. The zone of inhibition at 100 µg/mL with Candida albicans [24] and in the test with Aspergillus niger [29] was 22 to 25 mm in each case. The zone of inhibition at 125 µg/mL in the test with Candida albicans [25] is 14 mm.

Take `Nc1nc(-c2ccc(-n3cnnn3)cc2)cc(-c2ccc(OC(F)F)c(O)c2)n1`: the Ratio entry with Aspergillus niger [33], with Saccharomyces cerevisiae [34] and in the test with Aspergillus fumigatus [35] was “>=2” each time.

`Cc1snnc1C(Nc1ccc([N+](=O)[O-])cc1)c1nnnn1C1CCCCC1` (stereo not drawn): the inhibition of growth at 50 µg/mL (in the test on Fusarium graminearum; with Sclerotinia sclerotiorum; in the test with Phytophthora infestans; in the test on Botrytis cinerea; in [36]; with Alternaria solani) was 20 to 65.4% throughout. The inhibition of growth at 50 µg/mL (in the test with Mycosphaerella arachidis; in the test on Ceratobasidium cereale; in [37]) was 20 to 65.4% throughout.

For orientation: MIC means the lowest concentration that inhibits growth of the organism. What is called ED50 is the dose that gives a 50% effect, or the effect in half of the subjects.

The record behind these values is ChEMBL document CHEMBL4393657, “Tetrazole hybrids and their antifungal activities” (2019).
